Data as given in ChEMBL document CHEMBL4507265 (2021).

Key:
[1] = target: G protein-coupled receptor kinase 3 (Homo sapiens) (UniProt P35626); details: Compound concentration 1000.0 nM
[2] = target: Phosphatidylinositol 5-phosphate 4-kinase type-2 beta (Homo sapiens) (UniProt P78356); details: Compound concentration 1000.0 nM
[3] = target: Serine/threonine-protein kinase Sgk3 (Homo sapiens) (UniProt Q96BR1); details: Compound concentration 1000.0 nM
[4] = target: Serine/threonine-protein kinase MARK1 (Homo sapiens) (UniProt Q9P0L2); details: Compound concentration 1000.0 nM
[5] = system: Receptor-type tyrosine-protein kinase FLT3 (Homo sapiens), P36888 [UNDEFINED MUTATION]; details: Compound concentration 1000.0 nM
Receptor-type tyrosine-protein kinase FLT3 (Homo sapiens), P36888 [UNDEFINED MUTATION], sequence (P36888 whole entry, looked up, change not shown): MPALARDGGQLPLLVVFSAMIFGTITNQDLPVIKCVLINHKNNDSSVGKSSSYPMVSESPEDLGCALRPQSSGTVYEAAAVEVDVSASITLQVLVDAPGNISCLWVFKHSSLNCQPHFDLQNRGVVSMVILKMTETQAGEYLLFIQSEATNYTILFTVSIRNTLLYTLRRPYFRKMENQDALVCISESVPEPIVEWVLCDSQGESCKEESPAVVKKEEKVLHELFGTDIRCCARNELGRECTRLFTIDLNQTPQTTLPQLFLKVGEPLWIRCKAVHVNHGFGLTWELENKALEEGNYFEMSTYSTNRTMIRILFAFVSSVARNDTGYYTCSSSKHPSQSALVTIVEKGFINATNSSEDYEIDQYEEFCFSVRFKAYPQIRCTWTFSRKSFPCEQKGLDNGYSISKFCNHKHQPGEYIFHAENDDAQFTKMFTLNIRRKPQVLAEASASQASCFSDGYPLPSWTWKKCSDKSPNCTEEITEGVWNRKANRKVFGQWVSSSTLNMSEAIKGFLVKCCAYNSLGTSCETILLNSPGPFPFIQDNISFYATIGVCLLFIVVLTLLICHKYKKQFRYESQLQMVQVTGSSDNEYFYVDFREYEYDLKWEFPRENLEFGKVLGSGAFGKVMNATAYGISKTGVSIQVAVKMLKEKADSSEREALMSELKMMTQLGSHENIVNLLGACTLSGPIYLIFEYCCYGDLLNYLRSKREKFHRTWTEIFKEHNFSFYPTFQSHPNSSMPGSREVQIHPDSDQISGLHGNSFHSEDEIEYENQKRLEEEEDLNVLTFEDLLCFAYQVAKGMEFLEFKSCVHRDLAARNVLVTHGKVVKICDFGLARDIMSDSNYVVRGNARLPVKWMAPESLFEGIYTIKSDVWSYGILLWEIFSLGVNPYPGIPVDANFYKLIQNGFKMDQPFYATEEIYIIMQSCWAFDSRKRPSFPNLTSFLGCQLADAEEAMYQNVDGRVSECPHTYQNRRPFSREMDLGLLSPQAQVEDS

[6] = target: Citron Rho-interacting kinase (Homo sapiens) (UniProt O14578); details: Compound concentration 1000.0 nM
Citron Rho-interacting kinase (Homo sapiens), sequence (O14578 whole entry): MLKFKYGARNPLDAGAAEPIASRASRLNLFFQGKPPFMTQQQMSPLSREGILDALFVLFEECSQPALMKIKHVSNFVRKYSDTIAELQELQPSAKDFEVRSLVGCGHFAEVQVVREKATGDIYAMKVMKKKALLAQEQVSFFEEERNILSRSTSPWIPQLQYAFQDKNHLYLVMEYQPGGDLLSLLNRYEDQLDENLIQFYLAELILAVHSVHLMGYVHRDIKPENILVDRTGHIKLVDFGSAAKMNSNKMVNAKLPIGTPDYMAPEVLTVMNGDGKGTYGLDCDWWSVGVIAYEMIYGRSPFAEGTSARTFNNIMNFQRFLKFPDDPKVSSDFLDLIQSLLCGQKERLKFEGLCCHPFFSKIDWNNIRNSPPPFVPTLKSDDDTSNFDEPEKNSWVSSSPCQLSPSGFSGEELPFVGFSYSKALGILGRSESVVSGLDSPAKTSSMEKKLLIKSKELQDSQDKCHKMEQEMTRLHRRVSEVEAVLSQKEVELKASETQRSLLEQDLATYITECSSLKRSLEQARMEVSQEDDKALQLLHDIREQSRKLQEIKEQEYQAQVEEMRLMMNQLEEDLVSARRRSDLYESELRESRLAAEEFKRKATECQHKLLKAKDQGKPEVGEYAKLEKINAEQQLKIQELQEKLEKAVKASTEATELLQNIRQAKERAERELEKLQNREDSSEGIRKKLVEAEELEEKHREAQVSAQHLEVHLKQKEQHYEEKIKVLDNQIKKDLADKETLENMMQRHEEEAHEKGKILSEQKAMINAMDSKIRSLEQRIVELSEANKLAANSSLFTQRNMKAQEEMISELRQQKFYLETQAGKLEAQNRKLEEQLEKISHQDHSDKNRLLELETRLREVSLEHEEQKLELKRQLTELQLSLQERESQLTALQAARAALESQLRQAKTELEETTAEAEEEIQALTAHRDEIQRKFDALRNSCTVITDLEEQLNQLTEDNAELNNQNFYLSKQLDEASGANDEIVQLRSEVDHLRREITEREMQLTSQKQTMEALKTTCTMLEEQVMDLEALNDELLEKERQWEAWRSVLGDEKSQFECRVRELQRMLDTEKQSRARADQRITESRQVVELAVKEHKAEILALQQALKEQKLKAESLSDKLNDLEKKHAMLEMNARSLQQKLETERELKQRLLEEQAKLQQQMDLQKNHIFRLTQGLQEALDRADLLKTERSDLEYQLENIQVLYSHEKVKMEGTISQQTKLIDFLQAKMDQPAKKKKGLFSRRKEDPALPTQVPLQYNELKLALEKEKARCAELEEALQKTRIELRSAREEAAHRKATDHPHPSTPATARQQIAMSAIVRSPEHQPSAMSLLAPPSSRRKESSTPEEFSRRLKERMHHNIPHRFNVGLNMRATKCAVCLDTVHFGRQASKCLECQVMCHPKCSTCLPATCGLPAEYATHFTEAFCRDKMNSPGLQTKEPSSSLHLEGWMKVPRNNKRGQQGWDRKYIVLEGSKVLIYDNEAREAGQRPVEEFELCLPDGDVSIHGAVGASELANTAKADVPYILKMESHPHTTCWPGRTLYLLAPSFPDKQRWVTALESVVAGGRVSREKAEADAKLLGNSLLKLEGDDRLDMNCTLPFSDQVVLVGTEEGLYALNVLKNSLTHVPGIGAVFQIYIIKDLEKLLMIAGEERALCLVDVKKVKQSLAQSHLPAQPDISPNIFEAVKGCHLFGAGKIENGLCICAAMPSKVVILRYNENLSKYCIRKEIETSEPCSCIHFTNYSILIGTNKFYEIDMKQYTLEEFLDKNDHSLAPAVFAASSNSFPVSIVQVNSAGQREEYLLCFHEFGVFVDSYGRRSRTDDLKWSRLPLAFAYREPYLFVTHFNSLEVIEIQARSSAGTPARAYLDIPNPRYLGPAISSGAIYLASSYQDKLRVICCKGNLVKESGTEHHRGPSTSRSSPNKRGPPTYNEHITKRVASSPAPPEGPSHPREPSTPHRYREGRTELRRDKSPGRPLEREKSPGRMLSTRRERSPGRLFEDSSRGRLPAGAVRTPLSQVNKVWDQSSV

[7] = system: Epidermal growth factor receptor (Homo sapiens), P00533 [UNDEFINED MUTATION]; details: Compound concentration 1000.0 nM
[8] = target: Serine/threonine-protein kinase tousled-like 1 (Homo sapiens) (UniProt Q9UKI8); details: Compound concentration 1000.0 nM
[9] = target: RAF proto-oncogene serine/threonine-protein kinase (Homo sapiens) (UniProt P04049); details: Compound concentration 1000.0 nM
[10] = target: Calcium/calmodulin-dependent protein kinase kinase 2 (Homo sapiens) (UniProt Q96RR4); details: Compound concentration 1000.0 nM
[11] = target: Protein kinase C eta type (Homo sapiens) (UniProt P24723); details: Compound concentration 1000.0 nM
[12] = target: Mitogen-activated protein kinase 12 (Homo sapiens) (UniProt P53778); details: Compound concentration 1000.0 nM
[13] = target: Ephrin type-A receptor 1 (Homo sapiens) (UniProt P21709); details: Compound concentration 1000.0 nM
[14] = target: Mitogen-activated protein kinase kinase kinase 7 (Homo sapiens) (UniProt O43318); details: Compound concentration 1000.0 nM
[15] = target: Casein kinase I isoform gamma-3 (Homo sapiens) (UniProt Q9Y6M4); details: Compound concentration 1000.0 nM
[16] = target: Mitogen-activated protein kinase kinase kinase 14 (Homo sapiens) (UniProt Q99558); details: Compound concentration 1000.0 nM
[17] = target: MAP kinase-activated protein kinase 2 (Homo sapiens) (UniProt P49137); details: Compound concentration 1000.0 nM
MAP kinase-activated protein kinase 2 (Homo sapiens), sequence (P49137 whole entry, looked up): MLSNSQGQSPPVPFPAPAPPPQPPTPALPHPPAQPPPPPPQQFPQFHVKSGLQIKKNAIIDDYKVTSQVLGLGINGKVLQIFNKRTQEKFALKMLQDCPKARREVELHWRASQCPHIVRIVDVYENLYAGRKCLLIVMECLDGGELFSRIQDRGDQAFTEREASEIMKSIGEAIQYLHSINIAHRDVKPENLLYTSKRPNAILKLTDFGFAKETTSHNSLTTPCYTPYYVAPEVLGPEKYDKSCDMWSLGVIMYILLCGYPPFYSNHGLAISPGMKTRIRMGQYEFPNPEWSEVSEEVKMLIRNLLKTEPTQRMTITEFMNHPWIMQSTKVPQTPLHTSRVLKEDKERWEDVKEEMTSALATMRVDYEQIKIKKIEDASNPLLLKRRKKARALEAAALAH

[18] = target: Receptor-interacting serine/threonine-protein kinase 1 (Homo sapiens) (UniProt Q13546); details: Compound concentration 1000.0 nM
[19] = target: Sigma non-opioid intracellular receptor 1 (Homo sapiens) (UniProt Q99720); details: Compound concentration 10.0 uM
[20] = system: Tyrosine-protein kinase ABL1 (Homo sapiens), P00519 [Q252H]; details: Compound concentration 1000.0 nM
[21] = target: Tyrosine-protein kinase ITK/TSK (Homo sapiens) (UniProt Q08881); details: Compound concentration 1000.0 nM
[22] = target: Ephrin type-A receptor 8 (Homo sapiens) (UniProt P29322); details: Compound concentration 1000.0 nM
[23] = target: Phosphatidylinositol 4-phosphate 5-kinase type-1 gamma (Homo sapiens) (UniProt O60331); details: Compound concentration 1000.0 nM
[24] = target: Cytoplasmic tyrosine-protein kinase BMX (Homo sapiens) (UniProt P51813); details: Compound concentration 1000.0 nM
[25] = target: Phosphatidylinositol 4,5-bisphosphate 3-kinase catalytic subunit beta isoform (Homo sapiens) (UniProt P42338); details: Compound concentration 1000.0 nM
[26] = target: Mitogen-activated protein kinase kinase kinase 3 (Homo sapiens) (UniProt Q99759); details: Compound concentration 1000.0 nM
Mitogen-activated protein kinase kinase kinase 3 (Homo sapiens), sequence (Q99759 whole entry): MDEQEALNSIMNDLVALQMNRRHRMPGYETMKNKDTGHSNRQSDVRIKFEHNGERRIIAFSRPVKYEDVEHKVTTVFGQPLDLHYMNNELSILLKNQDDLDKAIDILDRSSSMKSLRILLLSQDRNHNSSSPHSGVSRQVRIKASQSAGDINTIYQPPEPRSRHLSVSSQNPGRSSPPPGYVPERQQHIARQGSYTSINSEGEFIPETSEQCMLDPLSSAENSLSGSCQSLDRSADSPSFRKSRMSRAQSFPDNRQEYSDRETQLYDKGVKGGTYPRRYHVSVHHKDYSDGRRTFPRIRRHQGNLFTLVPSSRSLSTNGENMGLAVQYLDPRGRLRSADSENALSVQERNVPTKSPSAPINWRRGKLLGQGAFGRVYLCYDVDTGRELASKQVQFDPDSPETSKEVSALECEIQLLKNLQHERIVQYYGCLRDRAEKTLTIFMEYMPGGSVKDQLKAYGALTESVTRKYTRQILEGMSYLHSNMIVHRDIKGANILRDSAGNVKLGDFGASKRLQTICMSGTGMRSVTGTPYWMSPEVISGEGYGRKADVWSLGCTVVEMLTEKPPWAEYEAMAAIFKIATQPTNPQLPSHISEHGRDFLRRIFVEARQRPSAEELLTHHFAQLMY

[27] = target: Muscarinic acetylcholine receptor M3 (Homo sapiens) (UniProt P20309); details: Compound concentration 10.0 uM
[28] = target: Alpha-2B adrenergic receptor (Homo sapiens) (UniProt P18089); details: Compound concentration 10.0 uM
[29] = target: Tyrosine-protein kinase Blk (Homo sapiens) (UniProt P51451); details: Compound concentration 1000.0 nM
Tyrosine-protein kinase Blk (Homo sapiens), sequence (P51451 2-505 limits assumed): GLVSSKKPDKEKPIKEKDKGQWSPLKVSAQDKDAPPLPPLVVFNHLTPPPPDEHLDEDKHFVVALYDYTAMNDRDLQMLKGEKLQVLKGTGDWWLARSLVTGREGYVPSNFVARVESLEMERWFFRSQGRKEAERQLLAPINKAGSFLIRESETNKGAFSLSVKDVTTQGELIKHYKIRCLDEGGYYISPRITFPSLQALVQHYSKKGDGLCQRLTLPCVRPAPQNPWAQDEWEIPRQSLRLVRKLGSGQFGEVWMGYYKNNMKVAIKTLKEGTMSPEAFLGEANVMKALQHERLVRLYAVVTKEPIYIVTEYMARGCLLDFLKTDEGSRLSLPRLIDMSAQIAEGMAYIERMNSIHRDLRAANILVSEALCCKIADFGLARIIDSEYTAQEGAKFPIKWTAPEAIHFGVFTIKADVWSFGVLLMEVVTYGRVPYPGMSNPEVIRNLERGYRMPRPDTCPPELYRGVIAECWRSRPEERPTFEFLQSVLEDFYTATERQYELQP

[30] = target: Serine/threonine-protein kinase Nek3 (Homo sapiens) (UniProt P51956); details: Compound concentration 1000.0 nM
[31] = target: Cyclin-dependent kinase 14 (Homo sapiens) (UniProt O94921); details: Compound concentration 1000.0 nM
[32] = target: Serine/threonine-protein kinase MRCK beta (Homo sapiens) (UniProt Q9Y5S2); details: Compound concentration 1000.0 nM
[33] = target: 5-hydroxytryptamine receptor 1D (Homo sapiens) (UniProt P28221); details: Compound concentration 10.0 uM
5-hydroxytryptamine receptor 1D (Homo sapiens), sequence (P28221 whole entry): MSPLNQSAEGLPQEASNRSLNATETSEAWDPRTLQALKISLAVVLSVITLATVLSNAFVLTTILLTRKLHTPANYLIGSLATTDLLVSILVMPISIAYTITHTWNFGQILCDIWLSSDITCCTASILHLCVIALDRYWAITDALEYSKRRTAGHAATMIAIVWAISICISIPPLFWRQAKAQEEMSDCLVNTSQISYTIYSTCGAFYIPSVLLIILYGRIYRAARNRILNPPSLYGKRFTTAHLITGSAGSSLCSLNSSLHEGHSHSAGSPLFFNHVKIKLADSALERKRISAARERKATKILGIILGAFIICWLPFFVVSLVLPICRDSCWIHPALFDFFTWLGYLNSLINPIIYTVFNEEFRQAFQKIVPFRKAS

[34] = target: Non-receptor tyrosine-protein kinase TNK1 (Homo sapiens) (UniProt Q13470); details: Compound concentration 1000.0 nM
[35] = target: Activin receptor type-2B (Homo sapiens) (UniProt Q13705); details: Compound concentration 1000.0 nM
[36] = target: Inhibitor of nuclear factor kappa-B kinase subunit alpha (Homo sapiens) (UniProt O15111); details: Compound concentration 1000.0 nM
[37] = target: Serine/threonine-protein kinase N2 (Homo sapiens) (UniProt Q16513); details: Compound concentration 1000.0 nM
[38] = target: Mitogen-activated protein kinase kinase kinase 10 (Homo sapiens) (UniProt Q02779); details: Compound concentration 1000.0 nM
[39] = system: Receptor-type tyrosine-protein kinase FLT3 (Homo sapiens), P36888 [UNDEFINED MUTATION]; details: Compound concentration 1000.0 nM; remark: listed apart in the source
[40] = target: RAC-gamma serine/threonine-protein kinase (Homo sapiens) (UniProt Q9Y243); details: Compound concentration 1000.0 nM
[41] = target: Serine/threonine-protein kinase PAK 6 (Homo sapiens) (UniProt Q9NQU5); details: Compound concentration 1000.0 nM
[42] = target: MAP/microtubule affinity-regulating kinase 3 (Homo sapiens) (UniProt P27448); details: Compound concentration 1000.0 nM
[43] = target: Testis-specific serine/threonine-protein kinase 3 (Homo sapiens) (UniProt Q96PN8); details: Compound concentration 1000.0 nM
[44] = system: Tyrosine-protein kinase ABL1 (Homo sapiens), P00519 [E255K]; details: Compound concentration 1000.0 nM

NS(=O)(=O)c1cc(NC(=O)C2(c3ccccc3Cl)CC2)ccc1Oc1cccc(Cl)c1 [BAY-207]
inactive: residual activity [1] 100% | residual activity [2] 62% | residual activity [3] 90% | residual activity [4] 83% | residual activity [5] 100% | residual activity [6] 78% | residual activity [7] 57% | residual activity [8] 99% | residual activity [9] 81% | residual activity [10] 89% | residual activity [11] 100% | residual activity [12] 54% | residual activity [13] 100% | residual activity [14] 98% | residual activity [15] 100% | residual activity [16] 100% | residual activity [17] 90% | residual activity [18] 93% | inhibition [19] 18.6% | residual activity [20] 58% | residual activity [21] 79% | residual activity [22] 80% | residual activity [24] 87% | residual activity [25] 100% | residual activity [26] 100% | inhibition [27] 17.9% | inhibition [28] 43.4% | residual activity [29] 100% | residual activity [30] 95% | residual activity [31] 63% | residual activity [32] 62% | inhibition [33] 6.75% | residual activity [34] 100% | residual activity [35] 90% | residual activity [36] 100% | residual activity [37] 83% | residual activity [38] 100% | residual activity [39] 100% | residual activity [40] 79% | residual activity [41] 100% | residual activity [42] 92% | residual activity [43] 100% | residual activity [44] 72%
active: residual activity [23] 48%

NS(=O)(=O)c1cc(NC(=O)Cc2ccccc2)ccc1Oc1cccc(Cl)c1 [BAY-1797]
inactive: residual activity [1] 100% | residual activity [2] 89% | residual activity [3] 83% | residual activity [4] 100% | residual activity [5] 97% | residual activity [6] 100% | residual activity [7] 67% | residual activity [8] 99% | residual activity [9] 100% | residual activity [10] 91% | residual activity [11] 93% | residual activity [12] 100% | residual activity [13] 100% | residual activity [14] 75% | residual activity [15] 74% | residual activity [16] 67% | residual activity [17] 100% | residual activity [18] 81% | inhibition [19] -8.2% | residual activity [20] 100% | residual activity [21] 87% | residual activity [22] 100% | residual activity [23] 100% | residual activity [24] 94% | residual activity [25] 84% | residual activity [26] 71% | inhibition [27] -0.53% | residual activity [29] 68% | residual activity [30] 100% | residual activity [31] 95% | residual activity [32] 100% | inhibition [33] 1.74% | residual activity [34] 74% | residual activity [35] 75% | residual activity [36] 63% | residual activity [37] 90% | residual activity [38] 98% | residual activity [39] 53% | residual activity [40] 100% | residual activity [41] 100% | residual activity [42] 100% | residual activity [43] 87% | residual activity [44] 69%
active: inhibition [28] 56.6%
